Experimental data as given in the NIST ThermoML archive (doi:10.1016/j.jct.2009.07.001).

Assay: excess molar enthalpy (molar enthalpy of mixing); xn = mol fraction of the nth substance listed
Conditions: 298.15 K, 101 kPa, Liquid, Calvet calorimetry

CCCCCCCCCCO [decan-1-ol] + CCCCOCCCC
Conditions	excess molar enthalpy [kcal/mol]
x1 = 0.0549	0.0829
x1 = 0.1045	0.13
x1 = 0.1508	0.159
x1 = 0.1992	0.18
x1 = 0.2491	0.194
x1 = 0.2975	0.204
x1 = 0.3443	0.207
x1 = 0.3964	0.208
x1 = 0.4484	0.214
x1 = 0.4966	0.199
x1 = 0.5428	0.186
x1 = 0.5887	0.175
x1 = 0.646	0.157
x1 = 0.6819	0.146
x1 = 0.7402	0.123
x1 = 0.7812	0.106
x1 = 0.8272	0.0825
x1 = 0.8767	0.0595
x1 = 0.9225	0.0356
